One experiment has as its system Zika virus. Put plainly: Functional CPE-based assay to measure dose dependent changes in antiviral-drug inhibitory efficacy against Zika virus MR766 in Vero E6 miRFP670 cells (cotreated with P-gp inhibitor, CP100356). Cells are treated with antiviral candidates that are serially diluted. EC50 is reported via analysis of MTS assay as a readout of CPE. The assay has been performed by KU Leuven. The experiment is classed as organism-based, Chlorocebus sabaeus, Vero C1008. To be noted: Zika virus; for EC90: P-gp concentration 500 nM, P-gp inhibitor CP100356. (In general: Tetrazolium dyes change colour on reduction, which living cells bring about.)

The subject of the next experiment is dengue virus type 2. Briefly: Functional assay to measure dose dependent changes in antiviral-drug inhibitory efficacy against Dengue virus type 2 New Guinea C in Vero E6 miRFP670 cells (cotreated with P-gp inhibitor, CP100356). Cells are treated with antiviral candidates that are serially diluted, following infection, cells are fixed. EC50 is reported via analysis of fluorescence intensity using high-content imager. The …. The experiment is classed as organism-based, Chlorocebus sabaeus, Vero C1008. The note with it: Dengue virus; for EC90: P-gp concentration 500 nM, P-gp inhibitor CP100356.

The source of these data is ChEMBL document CHEMBL5661943, “ASAP - In vitro antiviral effect” (2024).

As usually defined, the EC50 is the midpoint of the concentration-response curve. The EC90 is the concentration at which the effect reaches the 90% level. For `C=Cc1cc2c(cc1NC(=O)c1cc(F)cc3[nH]ncc13)CNC2`, the EC50 in the experiment on Zika virus (Vero C1008) was 5.17 µM; with dengue virus type 2 (Vero C1008) it was more than 6.25 µM. Moreover, the EC90 with Zika virus (Vero C1008, Baseline response 0 %, EC90 CI (lower) 8.54 uM, EC90 CI (upper) 30.093 uM, Hill slope 1.942, Maximum measured 120.806 %, Maximum response 100 %, Minimum measured 10.445 %, R squared 0.918) is 16 µM; with dengue virus type 2 (Vero C1008, Maximum measured 131.207 %, Minimum measured 113.262 %), more than 6.25 µM.

As to `COc1cc(Br)cc(C(=O)Nc2ccc3c(c2)CNC3)c1`, the concentration giving a half-maximal response (EC50) was 12.8 µM with Zika virus (Vero C1008) and more than 25 µM in the experiment on dengue virus type 2 (Vero C1008). In addition, the EC90 in the experiment with Zika virus (Vero C1008, Baseline response 0 %, EC90 CI (lower) 14.493 uM, EC90 CI (upper) 28.879 uM, Hill slope 4.703, Maximum measured 104.946 %, Maximum response 100 %, Minimum measured 1.527 %, R squared 0.964) was 20.5 µM; in the experiment on dengue virus type 2 (Vero C1008, Baseline response 0 %, Hill slope -0.242, Maximum measured 88.855 %, Maximum response 100 %, Minimum measured 49.171 %, R squared 0.071), more than 25 µM.

As for `O=C(Nc1ccc2c(c1)CNC2)c1cc(F)cc(-c2c[nH]c(=O)c(F)c2)c1`, the EC50 was more than 50 µM in the experiment on Zika virus (Vero C1008) and more than 25 µM with dengue virus type 2 (Vero C1008). Also, the EC90 was more than 50 µM in the experiment with Zika virus (Vero C1008, Maximum measured 1.475 %, Minimum measured -1.93 %) and more than 25 µM in the experiment on dengue virus type 2 (Vero C1008, Baseline response 0 %, Hill slope 1.228, Maximum measured 158.309 %, Maximum response 100 %, Minimum measured 64.759 %, R squared 0.303).

As to `CN(c1ccc2c(c1)CNC2)[C@H](C(=O)NCC(F)F)c1cc(Cl)cc(C2CC2)c1`, the EC50 with Zika virus (Vero C1008) is 0.859 µM; in the experiment on dengue virus type 2 (Vero C1008) it was more than 3.12 µM. In addition, the EC90 is 1.14 µM with Zika virus (Vero C1008, Baseline response 0 %, EC90 CI (lower) 0.179 uM, EC90 CI (upper) 7.248 uM, Hill slope 7.833, Maximum measured 121.708 %, Maximum response 100 %, Minimum measured 8.623 %, R squared 0.915) and more than 3.12 µM in the experiment with dengue virus type 2 (Vero C1008, Baseline response 0 %, Hill slope -0.632, Maximum measured 86.584 %, Maximum response 100 %, Minimum measured 48.476 %, R squared 0.311).

For the molecule `O=C(Nc1ccc2c(c1)CNC2)c1cc(Cl)cc2cn[nH]c12`, the EC50 was 3.01 µM in the experiment with Zika virus (Vero C1008) and more than 50 µM in the experiment on dengue virus type 2 (Vero C1008). The EC90 in the experiment on Zika virus (Vero C1008, Baseline response 0 %, EC90 CI (lower) 2.341 uM, EC90 CI (upper) 14.506 uM, Hill slope 3.321, Maximum measured 138.559 %, Maximum response 100 %, Minimum measured 2.928 %, R squared 0.845) is 5.83 µM; with dengue virus type 2 (Vero C1008, Maximum measured 130.797 %, Minimum measured 96.2 %) it was more than 50 µM.

Regarding `O=C1Cc2cc(C(=O)Nc3ccc4c(c3)CNC4)ccc2N1`, the EC50 with Zika virus (Vero C1008) and with dengue virus type 2 (Vero C1008) was more than 50 µM throughout. Moreover, the EC90 in the experiment with Zika virus (Vero C1008, Maximum measured 9.003 %, Minimum measured -9.167 %) was more than 50 µM; with Zika virus (Vero C1008, Baseline response 0 %, Hill slope 1.599, Maximum measured 7.523 %, Maximum response 100 %, Minimum measured -2.208 %, R squared 0.547) it was more than 50 µM; in the experiment with dengue virus type 2 (Vero C1008, Maximum measured 132.031 %, Minimum measured 88.326 %) it was more than 50 µM; in the experiment on dengue virus type 2 (Vero C1008, Maximum measured 147.509 %, Minimum measured 105.326 %), more than 50 µM; in the experiment on dengue virus type 2 (Vero C1008, Maximum measured 183.11 %, Minimum measured 101.645 %) it was more than 50 µM.

As for `COC(=O)c1cc(Br)cc2c(Cc3ccc(-c4nnn[nH]4)cc3)c[nH]c12`, the concentration for a half-maximal effect (EC50) in the experiment on Zika virus (Vero C1008) and in the experiment with dengue virus type 2 (Vero C1008) was more than 50 µM throughout. In addition, the EC90 in the experiment on Zika virus (Vero C1008, Baseline response 0 %, Hill slope 0.557, Maximum measured 36.25 %, Maximum response 100 %, Minimum measured -2.518 %, R squared 0.117) was more than 50 µM; in the experiment with dengue virus type 2 (Vero C1008, Maximum measured 157.502 %, Minimum measured 51.504 %) it was more than 50 µM.

On to `O=C(NCCCn1ccnc1)[C@H](Nc1ccc2c(c1)CNC2)c1cc(Cl)cc(C2CC2)c1`, for which the EC50 in the experiment with Zika virus (Vero C1008) and in the experiment on dengue virus type 2 (Vero C1008) was more than 50 µM each time. Moreover, the EC90 in the experiment on Zika virus (Vero C1008, Maximum measured 4.008 %, Minimum measured -17.269 %) was more than 50 µM; in the experiment with dengue virus type 2 (Vero C1008, Baseline response 0 %, Hill slope 0.691, Maximum measured 120.843 %, Maximum response 100 %, Minimum measured 86.475 %, R squared 0.179), more than 50 µM.

`Cn1cc2c(C(=O)Nc3ccc4c(c3)CNC4)cc(F)cc2n1`: the EC50 with Zika virus (Vero C1008) is 3.02 µM; in the experiment with dengue virus type 2 (Vero C1008), more than 50 µM. The EC90 is 9.23 µM in the experiment with Zika virus (Vero C1008, Baseline response 0 %, EC90 CI (lower) 4.41 uM, EC90 CI (upper) 19.306 uM, Hill slope 1.966, Maximum measured 124.261 %, Maximum response 100 %, Minimum measured 18.013 %, R squared 0.888) and more than 50 µM in the experiment on dengue virus type 2 (Vero C1008, Baseline response 0 %, Hill slope 0.83, Maximum measured 109.464 %, Maximum response 100 %, Minimum measured 93.167 %, R squared 0.272).

For the molecule `O=C(Nc1ccc2c(c1)CNC2)c1cc(Br)cc2[nH]c(=O)[nH]c12`, the EC50 with Zika virus (Vero C1008) and in the experiment with dengue virus type 2 (Vero C1008) was more than 50 µM in each case. In addition, the EC90 in the experiment on Zika virus (Vero C1008, Baseline response 0 %, Hill slope 1.27, Maximum measured 26.011 %, Maximum response 100 %, Minimum measured -2.243 %, R squared 0.854) is more than 50 µM; in the experiment on dengue virus type 2 (Vero C1008, Maximum measured 135.314 %, Minimum measured 105.633 %) it was more than 50 µM.

In the case of `O=C(Nc1ccc2c(c1)CNC2)c1cccc2[nH]c(C(F)(F)F)cc12`, the EC50 worked out at 0.857 µM with Zika virus (Vero C1008) and 11.6 µM in the experiment with dengue virus type 2 (Vero C1008). Also, the EC90 in the experiment with Zika virus (Vero C1008, Baseline response 0 %, EC90 CI (lower) 0.735 uM, EC90 CI (upper) 5.08 uM, Hill slope 2.705, Maximum measured 139.12 %, Maximum response 100 %, Minimum measured 13.658 %, R squared 0.773) was 1.93 µM; with dengue virus type 2 (Vero C1008, Baseline response 0 %, Hill slope -1.333, Maximum measured 97.959 %, Maximum response 100 %, Minimum measured 43.335 %, R squared 0.826), more than 12.5 µM.

Regarding `O=C(Nc1ccc2c(c1)CNC2)c1cccc2cn[nH]c12`, the EC50 with Zika virus (Vero C1008) is more than 50 µM; in the experiment on dengue virus type 2 (Vero C1008), 46.1 µM. Also, the EC90 is more than 50 µM in the experiment on Zika virus (Vero C1008, Baseline response 0 %, Hill slope 0.311, Maximum measured 17.727 %, Maximum response 100 %, Minimum measured -4.778 %, R squared 0.076) and more than 50 µM in the experiment with dengue virus type 2 (Vero C1008, Baseline response 0 %, Hill slope -1.364, Maximum measured 96.577 %, Maximum response 100 %, Minimum measured 45.147 %, R squared 0.579).

Consider `O=C(NCC(F)F)[C@H](Nc1cnc2c(c1)CNC2)c1cc(Cl)cc(C2CC2)c1`, for which the values for the EC50 in the experiment with Zika virus (Vero C1008) and with dengue virus type 2 (Vero C1008) were 0.828 µM and more than 50 µM, respectively. Further, the EC90 in the experiment with Zika virus (Vero C1008, Baseline response 0 %, EC90 CI (lower) 1.299 uM, EC90 CI (upper) 2.383 uM, Hill slope 2.915, Maximum measured 110.454 %, Maximum response 100 %, Minimum measured 12.588 %, R squared 0.958) is 1.76 µM; in the experiment with dengue virus type 2 (Vero C1008, Maximum measured 147.541 %, Minimum measured 99.767 %), more than 50 µM.

With `O=C(Nc1ccc2c(c1)CNC2)c1cc(F)cc2c1CCC2`, the EC50 is 1.81 µM in the experiment with Zika virus (Vero C1008) and more than 6.25 µM with dengue virus type 2 (Vero C1008). The EC90 is 4.48 µM with Zika virus (Vero C1008, Baseline response 0 %, EC90 CI (lower) 1.329 uM, EC90 CI (upper) 15.086 uM, Hill slope 2.425, Maximum measured 145.547 %, Maximum response 100 %, Minimum measured 22.113 %, R squared 0.732) and more than 6.25 µM in the experiment on dengue virus type 2 (Vero C1008, Baseline response 0 %, Hill slope -2.434, Maximum measured 106.021 %, Maximum response 100 %, Minimum measured 60.209 %, R squared 0.87).

As for `FC(F)(F)Oc1cc(Cl)cc2c(Cc3ccc(-c4nnn[nH]4)cc3)c[nH]c12`, the results for the EC50 in the experiment with Zika virus (Vero C1008) and with dengue virus type 2 (Vero C1008) were 20.6 µM and 11.9 µM, respectively. The EC90 in the experiment with Zika virus (Vero C1008, Baseline response 0 %, Hill slope 5.381, Maximum measured 73.735 %, Maximum response 100 %, Minimum measured 0.486 %, R squared 0.994) is more than 25 µM; in the experiment with dengue virus type 2 (Vero C1008, Baseline response 0 %, Hill slope -33.999, Maximum measured 142.465 %, Maximum response 100 %, Minimum measured 16.781 %, R squared 0.605), more than 12.5 µM.

`O=C(Nc1ccc2c(c1)CNC2)c1cccc2c(C3CNC3)n[nH]c12`: the EC50 is 9.06 µM in the experiment with Zika virus (Vero C1008) and more than 50 µM in the experiment on dengue virus type 2 (Vero C1008). In addition, the EC90 was 19.3 µM in the experiment with Zika virus (Vero C1008, Baseline response 0 %, EC90 CI (lower) 13.229 uM, EC90 CI (upper) 28.268 uM, Hill slope 2.896, Maximum measured 113.87 %, Maximum response 100 %, Minimum measured -0.433 %, R squared 0.955) and more than 50 µM in the experiment on dengue virus type 2 (Vero C1008, Maximum measured 103.764 %, Minimum measured 75.286 %).
